Here are results for 3 molecules from patent US11446267B2, “Nanoparticle compositions, methods of fabrication, and use for drug delivery” (DIGNITY HEALTH, priority 2017, dated 2022).

Structures are written as SMILES.

For series [1] the following is noted: chronic administration; cited from earlier work.
The subject of the next series is ALS patients. To be noted: subset of ALS patients, phase III study; cited from earlier work.
A further series deals with MAPK signaling. The series is described as follows: MAPK signaling after direct injection into the striatum. The format is in vivo. To be noted: injected directly into the striatum of healthy mice.
The conditions of series [2]: cited from earlier work.
For series [3] the following is noted: in vivo; cited from earlier work.
The next series addresses T1, RARα (Homo sapiens, UniProt P10276).
T1 sequence (P10276 1-462): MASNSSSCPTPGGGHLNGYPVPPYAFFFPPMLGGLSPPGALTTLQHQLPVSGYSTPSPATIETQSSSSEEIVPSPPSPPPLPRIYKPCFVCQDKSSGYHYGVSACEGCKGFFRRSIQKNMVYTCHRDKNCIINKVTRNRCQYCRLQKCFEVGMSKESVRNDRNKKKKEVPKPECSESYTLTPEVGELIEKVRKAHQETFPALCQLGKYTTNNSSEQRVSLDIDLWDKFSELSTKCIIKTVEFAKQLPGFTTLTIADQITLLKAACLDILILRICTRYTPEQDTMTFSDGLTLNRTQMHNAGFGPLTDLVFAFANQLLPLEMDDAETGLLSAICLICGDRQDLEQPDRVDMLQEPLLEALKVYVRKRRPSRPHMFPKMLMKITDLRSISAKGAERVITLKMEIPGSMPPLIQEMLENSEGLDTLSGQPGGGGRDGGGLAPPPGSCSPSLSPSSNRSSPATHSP
Particulars: cited from earlier work.

For a further series, the target named is T2, RARβ (Homo sapiens, UniProt P10826).
T2 sequence (P10826 1-455): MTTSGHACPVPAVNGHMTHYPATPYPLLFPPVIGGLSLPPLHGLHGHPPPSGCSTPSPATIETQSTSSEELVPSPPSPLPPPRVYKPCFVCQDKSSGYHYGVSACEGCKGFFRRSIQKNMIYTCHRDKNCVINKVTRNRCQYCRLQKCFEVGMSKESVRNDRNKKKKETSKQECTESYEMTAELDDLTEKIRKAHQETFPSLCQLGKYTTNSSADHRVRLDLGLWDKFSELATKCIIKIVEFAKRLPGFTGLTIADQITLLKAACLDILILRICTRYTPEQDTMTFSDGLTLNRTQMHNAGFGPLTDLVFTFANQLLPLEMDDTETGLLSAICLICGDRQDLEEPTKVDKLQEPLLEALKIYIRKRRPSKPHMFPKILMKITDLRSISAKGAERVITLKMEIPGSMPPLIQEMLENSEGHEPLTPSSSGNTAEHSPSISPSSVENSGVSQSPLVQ
To be noted: cited from earlier work.

In the next series the test system is RXRs. To be noted: cited from earlier work.
The subject of the next series is primary motor neurons. To be noted: oxidative injury and excitotoxicity; cited from earlier work.

Consider `C=C(c1ccc(C(=O)O)cc1)c1cc2c(cc1C)C(C)(C)CCC2(C)C` [bexarotene], for which the “motor impairments, lifespan, neuroprotection” value in series [1] was “reduced motor impairments, increased lifespan and was neuroprotective”.

For `CC1=NN(c2ccccc2)C(=O)C1` [Edaravone], in the series on ALS patients, the disease progression entry is “reduce disease progression”.

In the case of `COc1ccc(-c2ccc3cc(C(=O)O)ccc3c2)cc1C12CC3CC(CC(C3)C1)C2` [Adapalene], the “activation of MAPK signaling” value in the series on MAPK signaling is given as “equivalently activated MAPK signaling”. In addition, the solubility in water result in series [2] is reported as “less than 1 μg/ml”. Moreover, in series [3], the “clearance from the plasma” value is given as “rapidly cleared from the plasma”. In addition, the half-maximal activity concentration (AC50) was 9.2 nM at RARα and 2.2 nM at RARβ. Also, in the series with RXRs, the “interaction with RXRs” value was “does not interact”. Besides, the cell death result in the series with primary motor neurons is “reduced cell death”.
